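Tested at 5 concentrations; 48 h exposure; 96-well plates; endpoints linearly interpolated, else capped at highest concentration. The concentration for 50% growth inhibition is given as GI50.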 Activity calls are given as the source filed them. Rule as the data show it: active = GI50 up to about 1.1 µM and inactive = higher.
What was measured:
Assay in all cases: NCI-60 cell line screen, 48 h
OVCAR-5 = tested on: OVCAR-5
NCI-H23 = tested on: NCI-H23
HL-60 = tested on: HL-60
Malme-3M = tested on: Malme-3M
SK-OV-3 = tested on: SK-OV-3
SN12C = tested on: SN12C
RXF 393 = tested on: RXF 393
UO-31 = tested on: UO-31
ACHN = tested on: ACHN
HOP-92 = tested on: HOP-92
OVCAR-4 = tested on: OVCAR-4
KM12 = tested on: KM12
RPMI-8226 = tested on: RPMI-8226
HCC 2998 = tested on: HCC 2998
A498 = tested on: A498
SR = tested on: SR
NCI-H226 = tested on: NCI-H226
HCT-116 = tested on: HCT-116

Structure (SMILES)	GI50 (OVCAR-5)	GI50 (NCI-H23)	GI50 (HL-60)	GI50 (Malme-3M)	GI50 (SK-OV-3)	GI50 (SN12C)	GI50 (RXF 393)	GI50 (UO-31)	GI50 (ACHN)	GI50 (HOP-92)	GI50 (OVCAR-4)	GI50 (KM12)	GI50 (RPMI-8226)	GI50 (HCC 2998)	GI50 (A498)	GI50 (SR)	GI50 (NCI-H226)	GI50 (HCT-116)
CCCCCCCCCOC(=S)NC	18.3 µM (inactive)	16.7 µM (inactive)	15.4 µM (inactive)	20.6 µM (inactive)	24.5 µM (inactive)	18.4 µM (inactive)	> 10 µM (inactive)	11.2 µM (inactive)	19.3 µM (inactive)	18.2 µM (inactive)	19.6 µM (inactive)	25.6 µM (inactive)	20 µM (inactive)	19.1 µM (inactive)	20.1 µM (inactive)	–	–	–
NNC(=O)CCC(=O)Nc1ccc(Cl)cc1Cl	> 100 µM (inactive)	> 100 µM (inactive)	94.4 µM (inactive)	> 100 µM (inactive)	> 100 µM (inactive)	> 100 µM (inactive)	> 100 µM (inactive)	> 100 µM (inactive)	> 100 µM (inactive)	> 100 µM (inactive)	> 100 µM (inactive)	> 100 µM (inactive)	80.5 µM (inactive)	> 100 µM (inactive)	> 100 µM (inactive)	6.68 µM (inactive)	> 100 µM (inactive)	> 100 µM (inactive)
O=[N+]([O-])c1cccc(/C=N\NS(=O)(=O)c2ccc(Cl)cc2)c1O	> 100 µM (inactive)	44.3 µM (inactive)	46.9 µM (inactive)	> 100 µM (inactive)	> 100 µM (inactive)	> 100 µM (inactive)	37.8 µM (inactive)	67.3 µM (inactive)	98.6 µM (inactive)	42.6 µM (inactive)	> 100 µM (inactive)	> 100 µM (inactive)	55.5 µM (inactive)	> 100 µM (inactive)	> 100 µM (inactive)	18.7 µM (inactive)	–	50.4 µM (inactive)
Cc1cc(Cl)ccc1NC(=O)C(=O)Cc1nc2ccc(C(=O)c3ccccc3)cc2nc1O	–	> 100 µM (inactive)	99.5 µM (inactive)	> 100 µM (inactive)	> 100 µM (inactive)	> 100 µM (inactive)	> 100 µM (inactive)	78.7 µM (inactive)	> 100 µM (inactive)	20.4 µM (inactive)	> 100 µM (inactive)	42.5 µM (inactive)	–	> 100 µM (inactive)	–	7.4 µM (inactive)	64.7 µM (inactive)	> 100 µM (inactive)
COC(=O)N/N=C/c1oc(-c2cccc([N+](=O)[O-])c2)c(-c2cccc([N+](=O)[O-])c2)c1[N+](=O)[O-]	> 100 µM (inactive)	> 100 µM (inactive)	19.3 µM (inactive)	–	> 100 µM (inactive)	> 100 µM (inactive)	> 100 µM (inactive)	> 100 µM (inactive)	> 100 µM (inactive)	49.3 µM (inactive)	> 100 µM (inactive)	> 100 µM (inactive)	30.1 µM (inactive)	> 100 µM (inactive)	–	40.7 µM (inactive)	–	> 100 µM (inactive)
CC(=O)OC(OC(C)=O)c1ncccc1C(=O)OC(C)C	> 100 µM (inactive)	56.1 µM (inactive)	8.65 µM (inactive)	> 100 µM (inactive)	> 100 µM (inactive)	> 100 µM (inactive)	39.8 µM (inactive)	61.7 µM (inactive)	> 100 µM (inactive)	18.2 µM (inactive)	> 100 µM (inactive)	63.7 µM (inactive)	–	42.6 µM (inactive)	> 100 µM (inactive)	15.1 µM (inactive)	> 100 µM (inactive)	57.8 µM (inactive)
CN(C)C1=NC2=S(SC(Nc3ccccc3)=N2)S1 (stereo unspecified)	34.8 µM (inactive)	28.2 µM (inactive)	10 µM (inactive)	16.1 µM (inactive)	46.9 µM (inactive)	31.3 µM (inactive)	32 µM (inactive)	24 µM (inactive)	11.9 µM (inactive)	22.7 µM (inactive)	19 µM (inactive)	26.4 µM (inactive)	9.33 µM (inactive)	21 µM (inactive)	14.6 µM (inactive)	17.1 µM (inactive)	22.2 µM (inactive)	10.5 µM (inactive)
O=C(Nc1cc(Cl)ccc1Cl)c1cc2cccc(Br)c2oc1=O	–	> 100 µM (inactive)	> 100 µM (inactive)	> 100 µM (inactive)	> 100 µM (inactive)	> 100 µM (inactive)	> 100 µM (inactive)	> 100 µM (inactive)	> 100 µM (inactive)	–	–	> 100 µM (inactive)	> 100 µM (inactive)	–	–	–	> 100 µM (inactive)	> 100 µM (inactive)
CCCCNC(=S)OCCC(C)CCCC(C)C (stereo unspecified)	> 100 µM (inactive)	> 100 µM (inactive)	> 100 µM (inactive)	> 100 µM (inactive)	> 100 µM (inactive)	> 100 µM (inactive)	> 100 µM (inactive)	> 100 µM (inactive)	> 100 µM (inactive)	–	> 100 µM (inactive)	> 100 µM (inactive)	> 100 µM (inactive)	> 100 µM (inactive)	> 100 µM (inactive)	> 100 µM (inactive)	–	> 100 µM (inactive)
CCN(CC)CC(=O)NC1c2ccccc2Oc2ccccc21	> 100 µM (inactive)	> 100 µM (inactive)	> 100 µM (inactive)	–	> 100 µM (inactive)	> 100 µM (inactive)	> 100 µM (inactive)	> 100 µM (inactive)	–	–	> 100 µM (inactive)	–	> 100 µM (inactive)	> 100 µM (inactive)	–	> 100 µM (inactive)	> 100 µM (inactive)	> 100 µM (inactive)
N#CCCN(c1ccc(/C=C2\N=C(Cc3ccccc3)OC2=O)cc1)S(=O)(=O)c1ccccc1	> 100 µM (inactive)	> 100 µM (inactive)	> 100 µM (inactive)	> 100 µM (inactive)	> 100 µM (inactive)	> 100 µM (inactive)	> 100 µM (inactive)	> 100 µM (inactive)	> 100 µM (inactive)	–	–	> 100 µM (inactive)	> 100 µM (inactive)	> 100 µM (inactive)	> 100 µM (inactive)	–	> 100 µM (inactive)	> 100 µM (inactive)
CC1CCC2c3c([nH]c4ccccc34)C3C(=O)N(c4ccccc4)C(=O)C3C2C1 (stereo unspecified)	> 100 µM (inactive)	34.4 µM (inactive)	> 250 µM (inactive)	54.3 µM (inactive)	10.1 µM (inactive)	> 250 µM (inactive)	12.2 µM (inactive)	58.3 µM (inactive)	21.8 µM (inactive)	11.1 µM (inactive)	> 250 µM (inactive)	> 250 µM (inactive)	> 100 µM (inactive)	106 µM (inactive)	43.8 µM (inactive)	65 µM (inactive)	32.1 µM (inactive)	80.2 µM (inactive)
O=C(CN1CCN(c2cccc(Cl)c2)CC1)N1CCc2c([nH]c3ccccc23)C1c1cccnc1 (stereo unspecified)	3.96 µM (inactive)	16.4 µM (inactive)	2.38 µM (inactive)	–	> 100 µM (inactive)	9.57 µM (inactive)	2.67 µM (inactive)	4.1 µM (inactive)	8.87 µM (inactive)	12.8 µM (inactive)	13.5 µM (inactive)	4.85 µM (inactive)	1.92 µM (inactive)	5.24 µM (inactive)	20.5 µM (inactive)	2.23 µM (inactive)	–	4.5 µM (inactive)
C/C(CC(=O)Nc1cccc([N+](=O)[O-])c1)=N\NC(=O)C[n+]1ccccc1	> 100 µM (inactive)	> 100 µM (inactive)	> 100 µM (inactive)	> 100 µM (inactive)	> 100 µM (inactive)	–	> 100 µM (inactive)	> 100 µM (inactive)	–	> 100 µM (inactive)	–	> 100 µM (inactive)	> 100 µM (inactive)	> 100 µM (inactive)	–	–	> 100 µM (inactive)	> 100 µM (inactive)
C/C(=N\N(C)C)c1sc(-n2nc(-c3ccccc3)cc2-c2ccccc2)nc1C	21 µM (inactive)	> 100 µM (inactive)	> 100 µM (inactive)	> 100 µM (inactive)	> 100 µM (inactive)	> 100 µM (inactive)	> 100 µM (inactive)	> 100 µM (inactive)	> 100 µM (inactive)	61.9 µM (inactive)	> 100 µM (inactive)	> 100 µM (inactive)	–	> 100 µM (inactive)	> 100 µM (inactive)	> 100 µM (inactive)	> 100 µM (inactive)	> 100 µM (inactive)
CC(=O)Nc1ccc(/C=C/C(=O)c2sc(-c3cccnc3)nc2C)cc1	> 100 µM (inactive)	> 100 µM (inactive)	> 100 µM (inactive)	> 100 µM (inactive)	> 100 µM (inactive)	> 100 µM (inactive)	> 100 µM (inactive)	> 100 µM (inactive)	> 100 µM (inactive)	> 100 µM (inactive)	–	> 100 µM (inactive)	> 100 µM (inactive)	> 100 µM (inactive)	> 100 µM (inactive)	–	> 100 µM (inactive)	–
CSc1cccc(-n2c3nc(=O)n(C)c(=O)c-3nc3ccccc32)c1	18 µM (inactive)	4.35 µM (inactive)	3.34 µM (inactive)	3.04 µM (inactive)	35.3 µM (inactive)	5.38 µM (inactive)	–	17.4 µM (inactive)	0.735 µM (active)	9.33 µM (inactive)	9.53 µM (inactive)	12.9 µM (inactive)	5.77 µM (inactive)	4.03 µM (inactive)	12.6 µM (inactive)	–	11.8 µM (inactive)	7.29 µM (inactive)

Reference: ChEMBL document CHEMBL1201862, “PubChem BioAssay data set” (2004)
